Like-named read-outs stand apart in the source and are kept apart here.
Assays:
CFTR^+/+ epithelia = assay: Short-circuit current (Isc) response to increasing cAMP agonist concentrations, Ussing chambers, wild-type epithelia; assay type: cell-based, pig
Source text: (§1) These studies were done under conditions of maximal CFTR stimulation. Therefore, we also examined the response to increasing concentrations of forskolin and IBMX (at a fixed ratio of forskolin:IBMX of 1:10) (FIG. 33F,G). The EC50 for CFTR^+/+ epithelia was […]. In contrast, the EC50 for forskolin in CFTR^ΔF508/ΔF508 epithelia was 0.60±0.19
(§2) Because forskolin and IBMX might generate different cellular cAMP concentrations in CFTR^ΔF508/ΔF508 and CFTR^+/+ epithelia, we repeated the experiments with 8-CPT-cAMP, a membrane-permeable cAMP analog (FIG. 33H,I).
(§3) Epithelial tissues were excised from the nasal turbinate and septum, and from trachea through 2nd generation bronchi immediately after animals were euthanized. Tissues and cultured epithelia were studied in modified Ussing chambers. Epithelia were bathed on both surfaces with solution containing (mM): 135 NaCl, 2.4 K2HPO4, 0.6 KH2PO4, 1.2 CaCl2, 1.2 MgCl2, 10 dextrose, 5 HEPES, pH 7.4, at 37° C. and gassed with compressed air. Na-gluconate was substituted for NaCl in […] solutions. Transepithelial voltage (Vt) was maintained at 0 mV to measure short-circuit current (Isc). Transepithelial electrical conductance (Gt) was measured by intermittently clamping Vt to +5 and/or −5 mV.
(§4) A standard protocol was the following. 1) Measurements under basal conditions. 2) 100 μM apical amiloride to inhibit ENaC Na^+ channels. […]

[1] = tested on: CFTR^ΔF508/ΔF508 epithelia; assay: Short-circuit current (Isc) response to increasing cAMP agonist concentrations, Ussing chambers, ΔF508 epithelia; assay type: cell-based, pig
Source text: as §1, §2, §3, §4

nasal epithelia = assay: In vivo nasal transepithelial voltage (Vt) in newborn piglets; parameters: species or system pig; details: sequential perfusion, amiloride 100 μM, ATP 100 μM, GlyH-101 100 μM
Description: The transepithelial voltage (Vt) across the nasal epithelium was measured using previously described methods (Zabner et al., J. Clin. Invest. 97:1504, 1996; Standaert et al., Pediatr. Pulmonol. 37:385, 2004) under propofol anesthesia with the animal spontaneously breathing. The reference electrode was a small Ringer's solution-filled catheter inserted into the leg muscle (25 g needle). The exploring electrode was a 6 french foley catheter filled with Ringer's solution (148 mM NaCl, 2.4 mM KH2PO4, 0.4 mM K2PO4, 2.25 mM CaCl2, 1.2 mM MgCl2) inserted 4 cm into the nasal cavity, and the nasal mucosa was perfused at a rate of 5 ml/min using Ringer's solution to obtain baseline Vt. Subsequent perfusion solutions included: Ringer's solution containing 100 μM amiloride; Cl^−-free Ringer's solution containing gluconate substituted for CF plus amiloride; Cl^−-free Ringer's solution containing amiloride plus 10 μM isoproterenol; Cl^−-free Ringer's solution containing amiloride, isoproterenol, plus 100 μM ATP; Cl^−-free Ringer's solution containing amiloride, isoproterenol, ATP, plus 100 μM GlyH-101. Voltage was measured with a voltmeter connected to a strip chart recorder. Each solution was perfused for 3-5 minutes. Following completion of the measurements, the epithelium was disrupted by brushing and Vt measured again to determine the zero value of Vt.

[2] = tested on: excised trachea epithelia; assay: Electrophysiology of freshly excised tracheal epithelia in Ussing chambers; assay type: cell-based, pig; details: 100 μM apical
Source text: Values of transepithelial electrical conductance (Gt) were large, probably because of “edge damage” associated with clamping epithelia in Ussing chambers (Helman et al., Am. J. Physiol. Cell Physiol. 225(4):972-977, 1973) (compare with cultured epithelia in FIG. 31, 32).
as §3
A standard protocol was the following. 1) Measurements under basal conditions. 2) 100 μM apical amiloride to inhibit ENaC Na^+ channels. 3) 100 μM apical DIDS (4,4-diisothiocyano stilbene-2,2-disulfonic acid) to inhibit most anion channels other than CFTR. 4) 10 μM forskolin and 100 μM IBMX ([…]) to increase cellular levels of cAMP leading to phosphorylation and activation of CFTR. […]

Nc1ncnc2c1nc(Sc1ccc(Cl)cc1)n2[C@@H]1O[C@@H]2COP(=O)(O)O[C@H]2[C@H]1O [8-CPT-cAMP]
EC50 (CFTR^+/+ epithelia; wild-type epithelia, read-out: EC50 (change in Isc with increasing 8-CPT-cAMP)): 8 ± 1.3 µM
EC50 ([1]; read-out: EC50 (change in Isc with increasing 8-CPT-cAMP)): 65.2 ± 17.3 µM

Nc1ncnc2c1ncn2[C@@H]1O[C@H](COP(=O)(O)OP(=O)(O)OP(=O)(O)O)[C@@H](O)[C@H]1O [ATP]
Effect on nasal transepithelial voltage (Vt) (nasal epithelia): further hyperpolarized Vt

N=C(N)NC(=O)c1nc(Cl)c(N)nc1N [Amiloride, amiloride]
Effect on nasal transepithelial voltage (Vt) (nasal epithelia): reduced Vt in all genotypes
Effect on transepithelial conductance Gt (ΔGtamiloride) ([2]; CFTR^ΔF508/ΔF508 vs CFTR^+/+): reduced Gt (ΔGtamiloride) to a similar extent
Effect on Vt and Isc (ΔVtamiloride, ΔIscamiloride) ([2]; CFTR^ΔF508/ΔF508 vs wild-type): reduced Vt (ΔVtamiloride) and Isc (ΔIscamiloride) in CFTR^ΔF508/ΔF508 more than in wild-type epithelia

O=C(CNc1ccc2ccccc2c1)N/N=C/c1cc(Br)c(O)c(Br)c1O [GlyH-101]
Effect on nasal transepithelial voltage (Vt) (nasal epithelia): depolarized Vt in controls, but not CFTR−/− piglets

C=C[C@@]1(C)CC(=O)[C@]2(O)[C@@]3(C)[C@@H](O)CCC(C)(C)[C@@H]3[C@H](O)[C@H](OC(C)=O)[C@@]2(C)O1 [forskolin]
EC50 (CFTR^+/+ epithelia; Sus scrofa, CFTR^+/+ epithelia, increasing forskolin and IBMX at fixed ratio forskolin:IBMX 1:10, read-out: EC50 for forskolin (change in Isc)): 0.07 ± 0.01 µM
EC50 ([1]; Sus scrofa, increasing forskolin and IBMX at fixed ratio forskolin:IBMX 1:10, read-out: EC50 for forskolin (change in Isc)): 0.6 ± 0.19 µM
